Laboratory results taken from patent publication US10336746B1, “RAD51 inhibitors” (Cyteir Therapeutics, Inc., priority 2017, dated 2019).
Like-named read-outs stand apart in the source and are kept apart here.

How the values were obtained:
[1] = system: Daudi cell line (AID positive); assay: Primary screening cell killing assay, Daudi cell line (AID positive); assay type: cell-based; settings: Homo sapiens, 168 h, cell death on Day 7, Cell-Titer Glo
In short: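 AID-positive Daudi cells, 1250 per well, were exposed to serially diluted compounds for 7 days at 37° C. Viability read by CellTiter-Glo luminescence; percent cell death and EC50 derived against untreated wells after media-blank subtraction.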

[2] = system: WI-38 cells (AID negative); assay: Primary screening cell killing assay repeated in WI-38 cells (AID negative); assay type: cell-based; settings: Homo sapiens, 168 h, cell death on Day 7, Cell-Titer Glo
In short: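 Cell-killing counter-screen in AID-negative WI-38 cells, probing RAD51 inhibition via AID/RAD51 synthetic lethality. Viability luminescence (RLU) was media-subtracted, normalized to DMSO wells, and converted to percent kill (1 − normalized RLU) × 100; EC50 came from non-linear regression on a semi-log scale.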

Caco-2 cells = assay: Bi-directional Caco-2 permeability; assay type: in vitro ADME; settings: Caco-2
Description: (§1) Bi-directional Caco-2 permeability was assayed. Caco-2 cells were seeded onto permeable polycarbonate supports and allowed to differentiate for about 3 weeks prior to being used in the assays. The cells were then exposed to the compounds from either the apical or basolateral sides and incubated at 37 C for up to 90 minutes under light agitation. Compound transport was then measured using LC/MS/MS analysis at 30, 60, and 90 minutes.

[3] = Bi-directional Caco-2 permeability; assay type: in vitro ADME; settings: human; for efflux ratio at 90 min: Caco-2, read-out: BA/AB Ratio; for Papp A→B at 90 min: Caco-2, apical to basolateral, read-out: AB Papp (cm/sec × 10^6); for Papp A→B at 90 min / Papp B→A at 90 min: 37 C, up to 90 minutes; for Papp B→A at 90 min: Caco-2, basolateral to apical, read-out: BA Papp (cm/sec × 10^6)
Description: as §1

[4] = Human liver microsome stability; assay type: in vitro ADME; settings: human liver microsomes; for half-life / microsomal CLint: 37° C., 45 minutes; for microsomal CLint: read-out: Clearance (μg/min/mg)
Description: The stability of the claimed compounds was determined in the presences of human liver microsomes. The compounds were incubated with the microsomes at 37° C. for 45 minutes. Samples were analyzed using LC-MS/MS. Data analysis included half-life, clearance rate, and the percentage of hepatic blood flow (% QH) for each of the compounds in the different species.

Daudi (Lymphoma) = assay: Cell line screen, Daudi; assay type: cell-based; settings: Homo sapiens, AICDA Expression High
Description: (§2) The activity of the claimed compounds was measured in a variety of cell lines with different expression levels of activation induced cytidine deaminase (AICDA). The potency assay was repeated in all of the listed cell lines and the EC50 values recorded.

WSU-FSCCL (Lymphoma) = assay: Cell line screen, WSU-FSCCL; assay type: cell-based; settings: AICDA Expression Negative
Description: as §2

U-698-M (Lymphoma) = assay: Cell line screen, U-698-M; assay type: cell-based; settings: AICDA Expression High
Description: as §2

CCRF-SB (Leukemia) = assay: Cell line screen, CCRF-SB; assay type: cell-based; settings: Homo sapiens, AICDA Expression High
Description: as §2

KYSE-70 (Head and Neck) = assay: Cell line screen, KYSE-70; assay type: cell-based; settings: Homo sapiens, AICDA Expression Low
Description: as §2

KG-1 (Leukemia) = assay: Cell line screen, KG-1; assay type: cell-based; settings: AICDA Expression Negative
Description: as §2

KYSE-510 (Head and Neck) = assay: Cell line screen, KYSE-510; assay type: cell-based; settings: Homo sapiens, AICDA Expression Negative
Description: as §2

TOV-1120D (Ovary) = assay: Cell line screen, TOV-1120D; assay type: cell-based; settings: AICDA Expression Negative
Description: as §2

OV56 (Ovary) = assay: Cell line screen, OV56; assay type: cell-based; settings: AICDA Expression Low
Description: as §2

[5] = system: ARPE19/HPV16 (HPV Immortalized RPE); assay: Cell line screen, ARPE19/HPV16; assay type: cell-based; settings: ARPE-19, AICDA Expression Negative
Description: as §2

[6] = system: WI-38 (Normal Human Lung Fibroblast); assay: Cell line screen, WI-38; assay type: cell-based; settings: AICDA Expression Negative
Description: as §2

[7] = Pharmacokinetic (PK) study, plasma by LC-MS; assay type: in vivo, Rat; settings: po @ 80 mg/kg (30% PEG400, 10% Vitamin E TPGS in water); for half-life: plasma
Description: PK studies in mice were used to determine the fate of the compounds in a whole organism. Rats were treated with the compounds either orally of via IV at the indicated doses and followed for up to 24 hours. Plasma samples were taken at different time points and analyzed by LC-MS.

[8] = Caco-2, Caco-2, AB direction, read-out: AB Recovery %
[9] = Caco-2, Caco-2, BA direction, read-out: BA Recovery %

SMILES | EC50 [1] [nM] | EC50 [2] [nM] | recovery at 90 min [3, 8] [%] | recovery at 90 min [3, 9] [%] | efflux ratio at 90 min [3] | Papp A→B at 90 min [3] [×10⁻⁶ cm/s] | Papp B→A at 90 min [3] [×10⁻⁶ cm/s] | other results
CC(C)OC(=O)Nc1ccc(-c2cnc([C@@H]3CC[C@@H](NC(=O)OC(C)C)CO3)s2)c(S(=O)(=O)NC(C)(C)C)c1 (relative stereo) [Ex. 60, trans-isopropyl N-[6-[5-[2-(tert-butylsulfamoyl)-4-(isopropoxycarbonylamino)phenyl]thiazol-2-yl]tetrahydropyran-3-yl]carbamate] | 100 to 1000 | > 1000 | – | – | – | – | – | BA/AB Ratio (Caco-2 cells): 0.9
CC(C)OC(=O)N[C@H]1CC[C@H](c2ncc(-c3ccc(NC(=O)NCc4ccccn4)cc3S(=O)(=O)NC(C)(C)C)s2)CC1 [Ex. 29, isopropyl ((1r,4r)-4-(5-(2-(N-(tert-butyl)sulfamoyl)-4-(3-(pyridin-2-ylmethyl)ureido)phenyl)thiazol-2-yl)cyclohexyl)carbamate] | ≤ 100 | > 1000 | 93.9 | 90.9 | 2.2 | 10.9 | 24.1 | % QH (percentage of hepatic blood flow) [4]: 78.8%; half-life [4]: 0.342 h; microsomal CLint [4]: 68 µL/min/mg; EC50 (Daudi (Lymphoma)): 43 nM; EC50 (WSU-FSCCL (Lymphoma)): 67 nM; EC50 (U-698-M (Lymphoma)): 113 nM; EC50 (CCRF-SB (Leukemia)): 1280 nM; EC50 (KYSE-70 (Head and Neck)): 4660 nM; EC50 (KG-1 (Leukemia)): > 10000 nM; EC50 (KYSE-510 (Head and Neck)): > 10000 nM; EC50 (TOV-1120D (Ovary)): 9170 nM; EC50 (OV56 (Ovary)): 9090 nM; EC50 [5]: > 10000 nM; EC50 [6]: > 10000 nM; F (%) @ 5 mg/kg ([7]; Rat Female): 8.39%; F (%) @ 5 mg/kg ([7]; Rat Male): 3.69%; half-life ([7]; Rat Female): 4.66 h; half-life ([7]; Rat Male): 3.97 h
CC(C)OC(=O)N[C@H]1CC[C@H](c2ncc(-c3ccc(NC(=O)NCc4ncccc4F)cc3S(=O)(=O)NC(C)(C)C)s2)CC1 [Ex. 31, isopropyl ((1r,4r)-4-(5-(2-(N-(tert-butyl)sulfamoyl)-4-(3-((3-fluoropyridin-2-yl)methyl)ureido)phenyl)thiazol-2-yl)cyclohexyl)carbamate] | ≤ 100 | > 1000 | 70.5 | 92.3 | 1.1 | 12.8 | 13.6 | % QH (percentage of hepatic blood flow) [4]: 77.3%; half-life [4]: 0.373 h; microsomal CLint [4]: 61.9 µL/min/mg; EC50 (Daudi (Lymphoma)): 20 nM; EC50 (WSU-FSCCL (Lymphoma)): < 40 nM; EC50 (U-698-M (Lymphoma)): 31 nM; EC50 (CCRF-SB (Leukemia)): 2160 nM; EC50 (KYSE-70 (Head and Neck)): 4700 nM; EC50 (KG-1 (Leukemia)): 8780 nM; EC50 (KYSE-510 (Head and Neck)): > 10000 nM; EC50 [5]: > 10000 nM; EC50 [6]: > 10000 nM; F (%) @ 5 mg/kg ([7]; Rat Female): 2.77%; F (%) @ 5 mg/kg ([7]; Rat Male): 1.49%; half-life ([7]; Rat Female): 4.75 h; half-life ([7]; Rat Male): 3.79 h
C[C@H](NC(=O)Nc1ccc(-c2cnc(C3CCC(NC(=O)OC4COC4)CC3)s2)c(S(=O)(=O)NC(C)(C)C)c1)c1ccccc1F (stereo partly drawn) [Ex. 55, oxetan-3-yl ((1S,4r)-4-(5-(2-(N-(tert-butyl)sulfamoyl)-4-(3-((S)-1-(2-fluorophenyl)ethyl)ureido)phenyl)thiazol-2-yl)cyclohexyl)carbamate] | ≤ 100 | > 1000 | 65.2 | 83.8 | 1.1 | 6.5 | 7 | –
CC(C)OC(=O)N[C@H]1CC[C@H](c2nc(F)c(-c3ccc(NC(=O)NCc4ccccc4)cc3S(=O)(=O)NC(C)(C)C)s2)CC1 [Ex. 57, trans-isopropyl N-[4-[5-[4-(benzylcarbamoylamino)-2-(tert-butylsulfamoyl)phenyl]-4-fluoro-thiazol-2-yl]cyclohexyl]carbamate] | ≤ 100 | > 1000 | 61.9 | 86.8 | 2.7 | 1.3 | 3.5 | –
CC(C)OC(=O)Nc1ccc(-c2sc(C3CCC(NC(=O)OC(C)C)CC3)nc2F)c(S(=O)(=O)NC(C)(C)C)c1 (centres unmarked) [Ex. 58, isopropyl ((1r,4r)-4-(5-(2-(N-(tert-butyl)sulfamoyl)-4-((isopropoxycarbonyl)amino)phenyl)-4-fluorothiazol-2-yl)cyclohexyl)carbamate] | 100 to 1000 | > 1000 | 52.3 | 83.5 | 0.7 | 5.1 | 3.4 | –
CC(C)OC(=O)N[C@@H]1CC[C@@H](c2ncc(-c3ccc(NC(=O)NCc4ccccc4)cc3S(=O)(=O)NC(C)(C)C)s2)OC1 [Ex. 59A] | 100 to 1000 | > 1000 | 55.6 | 85.5 | 3.1 | 3.1 | 9.6 | –
CC(C)OC(=O)N[C@H]1CC[C@H](c2ncc(-c3ccc(NC(=O)NCc4ccccc4)cc3S(=O)(=O)NC(C)(C)C)s2)OC1 [Ex. 59B] | ≤ 100 | > 1000 | 56.2 | 82 | 2.1 | 4.6 | 9.7 | –
CC(C)OC(=O)Nc1ccc(-c2cnc([C@@H]3CC[C@@H](NC(=O)OC(C)C)CO3)s2)c(S(=O)(=O)NC(C)(C)C)c1 [Ex. 60A] | > 1000 | > 1000 | 55.3 | 86 | 0.9 | 12 | 11.2 | –
CC(C)OC(=O)Nc1ccc(-c2cnc([C@H]3CC[C@H](NC(=O)OC(C)C)CO3)s2)c(S(=O)(=O)NC(C)(C)C)c1 [Ex. 60B] | 100 to 1000 | > 1000 | 51.2 | 84.3 | 1.2 | 11.6 | 13.5 | –
CC(C)OC(=O)N[C@@H]1CC[C@@H](c2ncc(-c3ccc(NC(=O)NCc4ccccc4)cc3S(=O)(=O)NC(C)(C)C)s2)NC1 [Ex. 64, isopropyl ((3R,6S)-6-(5-(4-(3-benzylureido)-2-(N-(tert-butyl)sulfamoyl)phenyl)thiazol-2-yl)piperidin-3-yl)carbamate] | ≤ 100 | > 1000 | 79.7 | 95.9 | 12.5 | 2.2 | 27.4 | –
